Where only a bound is given, the exact number is not on record here.

One assay deals with T1, CDK12/CyclinK (Homo sapiens, UniProt Q9NYV4).
T1 construct: His-CDK12 (aa Q696-S1082); made in house; host or cells: Hi-5 insect cells (baculovirus co-infection with CycK and yeast CAK1)
Put plainly: CDK12/CycK high ATP kinase assay (TR-FRET). The class given is biochemical. The note with it: 2 mM ATP (high ATP); median; read-out: CDK12/CyclinK, 2 mM ATP (high ATP), IC50 - [mol/l] (median). The method in brief: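 Human His-tagged CDK12/CycK (about 0.75 nM) preincubated with compound 15 min, then reacted 60 min at 22 °C with 2 mM ATP and 1 µM biotinylated peptide in HEPES pH 7.5 buffer. Phospho-Ser62 c-Myc epitope detected by TR-FRET (665/620 nm ratio); data normalised to no-inhibitor and no-enzyme controls.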

The next assay deals with T2, CDK12 (Homo sapiens, UniProt Q9NYV4).
T2 construct: endogenous in cells; host or cells: CAL-120 human breast cancer cells (DSMZ ACC 459)
T2 sequence (Q9NYV4 whole entry): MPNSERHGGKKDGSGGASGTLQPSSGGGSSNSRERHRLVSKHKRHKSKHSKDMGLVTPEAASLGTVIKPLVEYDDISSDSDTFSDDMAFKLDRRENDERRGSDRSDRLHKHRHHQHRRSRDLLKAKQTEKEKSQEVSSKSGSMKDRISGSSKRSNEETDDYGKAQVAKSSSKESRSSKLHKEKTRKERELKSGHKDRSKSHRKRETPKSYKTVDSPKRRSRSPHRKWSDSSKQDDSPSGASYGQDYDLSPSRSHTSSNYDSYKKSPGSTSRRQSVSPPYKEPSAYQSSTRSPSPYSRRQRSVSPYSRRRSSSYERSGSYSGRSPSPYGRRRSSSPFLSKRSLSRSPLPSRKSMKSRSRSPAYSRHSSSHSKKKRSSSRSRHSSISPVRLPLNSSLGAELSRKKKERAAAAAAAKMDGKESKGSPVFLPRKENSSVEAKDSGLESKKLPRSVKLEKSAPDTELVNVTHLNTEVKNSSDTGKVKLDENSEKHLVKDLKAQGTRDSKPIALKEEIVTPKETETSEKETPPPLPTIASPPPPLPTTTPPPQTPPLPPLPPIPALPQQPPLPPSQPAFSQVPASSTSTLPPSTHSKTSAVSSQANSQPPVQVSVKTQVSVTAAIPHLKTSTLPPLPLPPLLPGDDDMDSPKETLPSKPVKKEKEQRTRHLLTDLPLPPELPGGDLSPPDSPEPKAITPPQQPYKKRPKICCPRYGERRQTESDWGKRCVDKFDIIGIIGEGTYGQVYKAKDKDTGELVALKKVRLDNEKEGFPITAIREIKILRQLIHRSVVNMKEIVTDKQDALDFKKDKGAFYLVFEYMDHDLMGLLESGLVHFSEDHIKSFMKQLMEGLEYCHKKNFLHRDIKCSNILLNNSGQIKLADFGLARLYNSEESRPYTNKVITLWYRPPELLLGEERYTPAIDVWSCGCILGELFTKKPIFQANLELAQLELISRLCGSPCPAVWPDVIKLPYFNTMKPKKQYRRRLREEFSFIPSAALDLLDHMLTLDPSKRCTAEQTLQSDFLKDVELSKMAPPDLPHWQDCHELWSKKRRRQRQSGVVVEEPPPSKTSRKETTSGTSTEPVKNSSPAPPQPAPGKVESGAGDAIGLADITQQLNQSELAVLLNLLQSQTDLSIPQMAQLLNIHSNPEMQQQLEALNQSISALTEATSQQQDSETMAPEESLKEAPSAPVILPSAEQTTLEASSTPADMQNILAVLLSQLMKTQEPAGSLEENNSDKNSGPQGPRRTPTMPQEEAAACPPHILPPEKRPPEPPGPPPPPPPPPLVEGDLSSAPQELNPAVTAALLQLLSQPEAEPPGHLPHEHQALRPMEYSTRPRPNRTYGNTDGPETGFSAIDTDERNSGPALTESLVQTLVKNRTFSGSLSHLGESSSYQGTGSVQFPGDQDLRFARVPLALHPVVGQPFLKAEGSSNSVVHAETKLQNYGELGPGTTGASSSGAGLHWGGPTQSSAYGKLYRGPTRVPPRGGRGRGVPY
T2 sequence (O75909 whole entry partner): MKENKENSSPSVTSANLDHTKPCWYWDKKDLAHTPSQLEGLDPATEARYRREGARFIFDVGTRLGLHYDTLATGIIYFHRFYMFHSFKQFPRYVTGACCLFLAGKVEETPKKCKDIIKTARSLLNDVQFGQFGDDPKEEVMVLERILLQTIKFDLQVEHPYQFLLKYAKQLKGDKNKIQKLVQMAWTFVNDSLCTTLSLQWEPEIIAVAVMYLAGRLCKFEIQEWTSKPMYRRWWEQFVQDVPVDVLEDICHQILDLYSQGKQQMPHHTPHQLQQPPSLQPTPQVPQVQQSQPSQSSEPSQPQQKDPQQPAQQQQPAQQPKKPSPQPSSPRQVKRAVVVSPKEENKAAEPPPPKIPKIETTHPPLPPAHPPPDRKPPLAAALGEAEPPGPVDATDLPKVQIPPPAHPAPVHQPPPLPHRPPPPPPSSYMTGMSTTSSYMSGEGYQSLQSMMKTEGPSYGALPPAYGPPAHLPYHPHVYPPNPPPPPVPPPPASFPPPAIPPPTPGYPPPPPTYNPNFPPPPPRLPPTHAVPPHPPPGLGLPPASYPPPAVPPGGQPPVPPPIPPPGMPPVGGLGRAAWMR
Put plainly: CDK12 nuclear protein level: immunofluorescence/high content analysis in CAL-120 cells. The class given is cell-based. The settings on record: for DC50: CAL-120 cells, 24 h, nuclear CDK12 staining intensity, median, read-out: CDK12 degradation IF DC50 - [mol/l] (median); for (IC50 CDK12 high ATP) to (Degradation DC50 CDK12) ratio: ratio of IC50 CDK12 hATP (2 mM ATP) to DC50 CDK12 (IF, CAL-120). The method in brief: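 Cells were exposed to compounds in dose-response for 24 h at 37 °C, then PFA-fixed, immunostained for CDK12 and counterstained with Hoechst before confocal imaging. Nuclear CDK12 intensity was normalized to DMSO and control. DC50 is the concentration giving 50% reduction of nuclear staining.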

T1 sequence (Q9NYV4 with tags, fused parts or gaps): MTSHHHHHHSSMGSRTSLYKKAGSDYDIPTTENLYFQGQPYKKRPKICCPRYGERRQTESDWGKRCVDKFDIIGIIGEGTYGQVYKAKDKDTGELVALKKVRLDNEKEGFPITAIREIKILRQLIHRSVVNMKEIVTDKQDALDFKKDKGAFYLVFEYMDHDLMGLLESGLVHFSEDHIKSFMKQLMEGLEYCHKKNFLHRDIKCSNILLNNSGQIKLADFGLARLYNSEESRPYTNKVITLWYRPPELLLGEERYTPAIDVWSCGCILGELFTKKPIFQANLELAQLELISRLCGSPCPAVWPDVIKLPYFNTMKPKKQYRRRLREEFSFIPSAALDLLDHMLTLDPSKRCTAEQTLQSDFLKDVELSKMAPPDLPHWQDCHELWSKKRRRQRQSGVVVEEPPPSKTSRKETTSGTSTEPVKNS
T1 sequence (O75909 with tags, fused parts or gaps partner limits assumed): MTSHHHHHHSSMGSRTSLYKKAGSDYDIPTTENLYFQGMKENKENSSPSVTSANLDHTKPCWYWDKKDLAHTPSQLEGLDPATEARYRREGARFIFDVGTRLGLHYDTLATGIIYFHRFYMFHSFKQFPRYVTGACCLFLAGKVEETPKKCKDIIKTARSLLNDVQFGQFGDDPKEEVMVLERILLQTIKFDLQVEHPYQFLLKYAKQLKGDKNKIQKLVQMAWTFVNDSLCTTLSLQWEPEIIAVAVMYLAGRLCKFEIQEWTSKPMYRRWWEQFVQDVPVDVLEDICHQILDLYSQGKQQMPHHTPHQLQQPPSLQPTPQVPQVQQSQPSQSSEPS

Take `OC1(Cn2nc(NCc3nc4ccccc4[nH]3)c3ncc(C4CC4)nc32)CCCC1` [Example 73, 1-[(3-{[(1H-benzimidazol-2-yl)methyl]amino}-6-cyclopropyl-1H-pyrazolo[3,4-b]pyrazin-1-yl)methyl]cyclopentan-1-ol]: the IC50 at CDK12/CyclinK is more than 10000 nM. At CDK12, the DC50 came out at 112 nM and the “(IC50 CDK12 high ATP) to (Degradation DC50 CDK12) ratio” value was more than 90.
On the same counts, the results for `OCC1(Cn2nc(NCc3nc4ccccc4[nH]3)c3ncc(C4CC4)nc32)CCC1` [Example 74, {1-[(3-{[(1H-benzimidazol-2-yl)methyl]amino}-6-cyclopropyl-1H-pyrazolo[3,4-b]pyrazin-1-yl)methyl]cyclobutyl}methanol] are more than 10000 nM, 15.1 nM and more than 660.
With `c1ccc2[nH]c(CNc3nn(CC4CCC4)c4nc(C5CC5)cnc34)nc2c1` [Example 75, N-[(1H-benzimidazol-2-yl)methyl]-1-(cyclobutylmethyl)-6-cyclopropyl-1H-pyrazolo[3,4-b]pyrazin-3-amine], the IC50 at CDK12/CyclinK was more than 20000 nM. Besides, at CDK12, the DC50 turned out to be 135 nM and the “(IC50 CDK12 high ATP) to (Degradation DC50 CDK12) ratio” value is listed as more than 148.
Regarding `CC(C)(O)CCn1nc(NCc2nc3ccccc3[nH]2)c2ncc(C3CC3)nc21` [Example 76, 4-(3-{[(1H-benzimidazol-2-yl)methyl]amino}-6-cyclopropyl-1H-pyrazolo[3,4-b]pyrazin-1-yl)-2-methylbutan-2-ol], the IC50 at CDK12/CyclinK was more than 20000 nM. Further, on CDK12, the DC50 was found to be 2.17 nM and the “(IC50 CDK12 high ATP) to (Degradation DC50 CDK12) ratio” value is more than 9202.
For `Cc1cnc2c(NCc3nc4ccccc4[nH]3)nn(C3CCN(C)CC3)c2n1` [Example 77, N-[(1H-benzimidazol-2-yl)methyl]-6-methyl-1-(1-methylpiperidin-4-yl)-1H-pyrazolo[3,4-b]pyrazin-3-amine], the IC50 at CDK12/CyclinK is more than 20000 nM. In addition, on CDK12, the DC50 stood at 127 nM and the “(IC50 CDK12 high ATP) to (Degradation DC50 CDK12) ratio” value is more than 133.
